Where a name gives a salt, the structure may show the parent alone.

T1 sequence (P50406 whole entry): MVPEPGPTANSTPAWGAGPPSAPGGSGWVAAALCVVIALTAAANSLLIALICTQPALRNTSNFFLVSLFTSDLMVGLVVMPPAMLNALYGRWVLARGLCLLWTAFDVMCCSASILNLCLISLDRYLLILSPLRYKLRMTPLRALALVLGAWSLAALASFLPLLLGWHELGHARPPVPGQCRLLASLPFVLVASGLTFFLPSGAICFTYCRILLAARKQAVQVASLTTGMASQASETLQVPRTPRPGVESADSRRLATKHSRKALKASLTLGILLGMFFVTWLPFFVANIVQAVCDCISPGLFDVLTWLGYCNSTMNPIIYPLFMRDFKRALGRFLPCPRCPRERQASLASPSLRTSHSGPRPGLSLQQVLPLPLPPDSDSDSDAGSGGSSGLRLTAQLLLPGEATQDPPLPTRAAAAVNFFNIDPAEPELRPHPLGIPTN

The first experiment concerns the target T1, human cloned 5-HT6 receptors (Homo sapiens, UniProt P50406).
T1 construct: expressed in transfected cells
Description: 5-HT6 receptor affinity (procedures outlined in WO 98/27081). It is filed as binding.
Settings: not given
On to `O=S(=O)(c1cccc(F)c1)n1ccc2c(N3CCNCC3)cccc21` [Example E22], for which the Ki fell in the range of 0.2 to 1.58 nM.
The same measure, in the same setting: the result for `O=S(=O)(c1cccc2nsnc12)n1ccc2c(N3CCNCC3)cccc21` [Example E40] reads 0.2 to 1.58 nM; that for `O=S(=O)(c1c(Cl)cccc1Cl)n1ccc2c(N3CCNCC3)cccc21` [Example E70], 0.2 to 1.58 nM; that for `COc1ccc2c(ccn2S(=O)(=O)c2ccc(C)cc2)c1N1CCNCC1` [Example E80, 5-Methoxy-4-(piperazin-1-yl)-1-(toluene-4-sulfonyl)-1H-indole], 0.2 to 1.58 nM.
In turn, `CN1CCN(c2cccc3c2ccn3S(=O)(=O)c2cccs2)CC1` [Example E98] returned a Ki of 0.2 to 1.58 nM.
Same read-out and setting: under `O=S(=O)(c1cccc(Br)c1)n1ccc2c(N3CCNCC3)cccc21` [Example E107] stands 0.2 to 1.58 nM; under `O=S(=O)(c1cccc(Cl)c1)n1ccc2c(N3CCNCC3)cccc21` [Example E111], 0.2 to 1.58 nM; under `Cc1ccc(S(=O)(=O)n2ccc3c(N4CCNCC4)cccc32)cc1Cl` [Example E112], 0.2 to 1.58 nM.
The same measure, in the same setting: the result for `O=S(=O)(c1ccc(Br)cc1)n1ccc2c(N3CCNCC3)cccc21` [Example E113] reads 0.2 to 1.58 nM; that for `O=[N+]([O-])c1cccc(S(=O)(=O)n2ccc3c(N4CCNCC4)cccc32)c1` [Example E119], 0.2 to 1.58 nM; that for `O=S(=O)(c1cccs1)n1ccc2c(N3CCNCC3)cccc21` [Example E121], 0.2 to 1.58 nM.
The same measure, in the same setting: the result for `O=S(=O)(c1ccc(F)c(Cl)c1)n1ccc2c(N3CCNCC3)cccc21` [Example E123] reads 0.2 to 1.58 nM.
The compound `O=S(=O)(c1ccccc1Br)n1ccc2c(N3CCNCC3)cccc21` [Example E126] registered a Ki of 0.2 to 1.58 nM.
In turn, `O=S(=O)(c1cc(F)cc(F)c1Cl)n1ccc2c(N3CCNCC3)cccc21` [Example E131, 1-(2-Chloro-3,5-difluorobenzenesulfonyl)-4-piperazin-1-yl-1H-indole] had a Ki of 0.2 to 1.58 nM.
For `O=S(=O)(c1cccc(Cl)c1)n1ccc2c(N3CCNCC3)c(Cl)ccc21` [Example E132, 5-Chloro-1-(3-chlorobenzenesulfonyl)-4-piperazin-1-yl-1H-indole hydrochloride], the Ki lay in the range of 0.2 to 1.58 nM.
Same read-out and setting: the result for `O=S(=O)(c1ccccc1)n1ccc2c(N3CCNCC3)c(Cl)ccc21` [Example E135, 1-(Benzenesulfonyl)-5-chloro-4-piperazin-1-yl-1H-indole hydrochloride] reads 0.2 to 1.58 nM; that for `O=S(=O)(c1ccccc1Br)n1ccc2c(N3CCNCC3)c(Cl)ccc21` [Example E137, 1-(2-Bromobenzenesulfonyl)-5-chloro-4-piperazin-1-yl-1H-indole hydrochloride], 0.2 to 1.58 nM; that for `Cc1cccc(S(=O)(=O)n2ccc3c(N4CCNCC4)c(Cl)ccc32)c1` [Example E140, 5-Chloro-1-(3-methylbenzenesulfonyl)-4-piperazin-4-yl-1H-indole hydrochloride], 0.2 to 1.58 nM.
Compound `O=S(=O)(c1ccccn1)n1ccc2c(N3CCNCC3)c(Cl)ccc21` [Example E149, 5-Chloro-1-(pyridine-2-sulfonyl)-4-piperazin-4-yl-1H-indole hydrochloride] had a Ki of 0.2 to 1.58 nM.
Same read-out and setting: under `O=S(=O)(c1cccc(Cl)c1)n1cc(Cl)c2c(N3CCNCC3)cccc21` [Example E151, 3-Chloro-1-(3-chlorobenzenesulfonyl)4-piperazin-1-yl-1H-indole hydrochloride] stands 0.2 to 1.58 nM.
The compound `O=S(=O)(c1cccc(Cl)c1)n1ccc2c(N3CCNCC3)ccc(Cl)c21` [Example E152, 7-Chloro-1-(3-chlorobenzenesulfonyl)-4-piperazin-1-yl-1H-indole hydrochloride] gave a Ki of 0.2 to 1.58 nM.
In turn, `O=S(=O)(c1cc(Cl)cc(Cl)c1)n1ccc2c(N3CCNCC3)ccc(Cl)c21` [Example E153, 7-Chloro-1-(3,5-dichlorobenzenesulfonyl)-4-piperazin-1-yl-1H-indole hydrochloride] gave a Ki of 0.2 to 1.58 nM.
The same measure, in the same setting: under `O=S(=O)(c1ccccc1)n1ccc2c(N3CCNCC3)ccc(Cl)c21` [Example E154, 1-Benzenesulfonyl-7-choro-4-piperazin-1-yl-1H-indole hydrochloride] stands 0.2 to 1.58 nM; under `O=S(=O)(c1cccc(Cl)c1)n1ccc2c(N3CCNCC3)ccc(Br)c21` [Example E156, 7-Bromo-1-(3-chlorobenzenesulfonyl)-4-piperazin-1-yl-1H-indole hydrochloride], 0.2 to 1.58 nM; under `N#Cc1ccc(N2CCNCC2)c2ccn(S(=O)(=O)c3cccc(Cl)c3)c12` [Example E157, 7-Cyano-1-(3-chlorobenzenesulfonyl)-4-piperazin-1-yl-1H-indole hydrochloride], 0.2 to 1.58 nM.
Still for that read-out and setting: under `O=S(=O)(c1cccc(Cl)c1)n1cc(Cl)c2c(N3CCNCC3)c(Cl)ccc21` [Example E158, 1-(3-Chlorobenzenesulfonyl)-3,5-dichloro-4-piperazin-1-yl-1H-indole hydrochloride] stands 0.2 to 1.58 nM.
Compound `O=S(=O)(c1cccc(Cl)c1)n1ccc2c(N3CCNCC3)c(Cl)cc(Cl)c21` [Example E159, 1-(3-Chlorobenzenesulfonyl)-5,7-dichloro piperazin-1-yl-1H-indole hydrochloride] yielded a Ki of 0.2 to 1.58 nM.
`O=S(=O)(c1cccc(Cl)c1)n1ccc2c(N3CCNCC3)c(F)ccc21` [Example E163, 1-(3-Chlorobenzenesulfonyl)-5-fluoro-4-piperazin-1-yl-1H-indole hydrochloride] registered a Ki of 0.2 to 1.58 nM.
The compound `Cc1cc2c(N3CCNCC3)cccc2n1S(=O)(=O)c1cccc(Cl)c1` [Example E165, 1-(3-Chlorobenzenesulfonyl)-2-methyl-4-piperazin-1-yl-1H-indole hydrochloride] gave a Ki of 0.2 to 1.58 nM.
The same measure, in the same setting: under `O=S(=O)(c1cccc(Cl)c1)n1ccc2c(N3CCNCC3)cc(Cl)cc21` [Example E166, 6-Chloro-1-(3-chlorobenzenesulfonyl)-4-piperazin-1-yl-1H-indole hydrochloride] stands 0.2 to 1.58 nM; under `Cc1cn(S(=O)(=O)c2cccc(Cl)c2)c2cccc(N3CCNCC3)c12` [Example E167, 1-(3-Chlorobenzenesulfonyl)-3-methyl-4-piperazin-1-yl-1H-indole hydrochloride], 0.2 to 1.58 nM; under `N#Cc1cc(Br)ccc1S(=O)(=O)n1ccc2c(N3CCNCC3)cccc21` [Example E171, 1-(4-Bromo-2-cyanobenzenesulfonyl)-4-piperazin-1-yl-1H-indole hydrochloride], 0.2 to 1.58 nM.
Same read-out and setting: the result for `COc1ccc2c(ccn2S(=O)(=O)c2cccc(Cl)c2)c1N1CCNCC1` [Example E172, 1-(3-Chlorobenzenesulfonyl)-5-methoxy-4-piperazin-1-yl-1H-indole hydrochloride] reads 0.2 to 1.58 nM.
`COc1ccc(N2CCNCC2)c2ccn(S(=O)(=O)c3cccc(Cl)c3)c12` [Example E173, 1-(3-Chlorobenzenesulfonyl)-7-methoxy-4-piperazin-1-yl-1H-indole hydrochloride] had a Ki of 0.2 to 1.58 nM.

The experiment is the same for the next values; noted with them: human cloned 5-HT6 receptors; procedures of WO 98/27081; read-out: pKi at human cloned 5-HT6 receptors (converted).
As for `O=S(=O)(c1ccc2ccccc2c1)n1ccc2c(N3CCNCC3)c(Cl)ccc21` [Example E77, 5-Chloro-1-(naphthalene-2-sulfonyl)-4-piperazin-1-yl-1H-indole trifluoroacetic acid salt], the Ki was 0.2 to 1.58 nM.
`COc1c(Cl)cc(Cl)cc1S(=O)(=O)n1ccc2c(N3CCNCC3)c(Cl)ccc21` [Example E78, 5-Chloro-1-(3,5-dichloro-2-methoxybenzenesulfonyl)-4-piperazin-1-yl-1H-indole trifluoroacetic acid salt]: the Ki is 0.2 to 1.58 nM.
Turning to `CN1CCN(c2cccc3c2ccn3S(=O)(=O)c2cccc(Br)c2)CC1` [Example E82], the Ki is 0.2 to 1.58 nM.
Regarding `CN1CCN(c2cccc3c2ccn3S(=O)(=O)c2cc(Br)c(Cl)s2)CC1` [Example E85], the Ki is 0.2 to 1.58 nM.
As for `CN1CCN(c2cccc3c2ccn3S(=O)(=O)c2cccc(Cl)c2)CC1` [Example E87], the Ki was 0.2 to 1.58 nM.
As to `CN1CCN(c2cccc3c2ccn3S(=O)(=O)c2ccc3ccccc3c2)CC1` [Example E90], the Ki is 0.2 to 1.58 nM.
Regarding `CN1CCN(c2cccc3c2ccn3S(=O)(=O)c2ccccc2C(F)(F)F)CC1` [Example E91], the Ki is 0.2 to 1.58 nM.
Regarding `CN1CCN(c2cccc3c2ccn3S(=O)(=O)c2cccc(C(F)(F)F)c2)CC1` [Example E93], the Ki is 0.2 to 1.58 nM.
Turning to `CN1CCN(c2cccc3c2ccn3S(=O)(=O)c2ccccc2)CC1` [Example E94], the Ki was 0.2 to 1.58 nM.
Same read-out and setting: the result for `CN1CCN(c2cccc3c2ccn3S(=O)(=O)c2cc(Cl)cc(Cl)c2)CC1` [Example E99] reads 0.2 to 1.58 nM; that for `CN1CCN(c2cccc3c2ccn3S(=O)(=O)c2ccc(F)c(Cl)c2)CC1` [Example E100], 0.2 to 1.58 nM; that for `CN1CCN(c2cccc3c2ccn3S(=O)(=O)c2ccccc2Br)CC1` [Example E103], 0.2 to 1.58 nM.
As to `O=S(=O)(c1ccccc1C(F)(F)F)n1ccc2c(N3CCNCC3)cccc21` [Example E115], the Ki is 0.2 to 1.58 nM.
For `O=S(=O)(c1cccc(C(F)(F)F)c1)n1ccc2c(N3CCNCC3)c(Cl)ccc21` [Example E139, 5-Chloro-1-(3-trifluoromethyl-benzenesulfonyl)-4-piperazin-1-yl-1H-indole hydrochloride], the Ki was 0.2 to 1.58 nM.
On the same count and under the same terms, the result for `O=S(=O)(c1ccc(Cl)cc1OC(F)(F)F)n1ccc2c(N3CCNCC3)cccc21` [Example E168, 1-(4-Chloro-2-trifluoromethoxybenzenesulfonyl)-4-piperazin-1-yl-1H-indole hydrochloride] reads 0.2 to 1.58 nM.
The same measure, in the same setting: the result for `N#Cc1cc(Br)ccc1S(=O)(=O)n1ccc2c(N3CCNCC3)c(Cl)ccc21` [Example E170, 1-(4-Bromo-2-cyanobenzenesulfonyl)-5-chloro-4-piperazin-1-yl-1H-indole hydrochloride] reads 0.2 to 1.58 nM.
With `O=S(=O)(c1cccc(Cl)c1)n1ccc2c(N3CCCNCC3)ccc(Cl)c21` [Example E175, 7-Chloro-1-(3-chlorobenzenesulfonyl)-4-[1,4]diazepan-1-yl-1H-indole hydrochloride], the Ki is 0.2 to 1.58 nM.

These data come from patent US20050176705A1, “Compounds useful in the treatment of cns disorders” (priority 2000, published 2005).
